16 molecules from patent publication US20170210751A1, “PRMT5 INHIBITORS AND USES THEREOF” (Epizyme, Inc., priority 2014, published 2017) can be followed below.

Where only a bound is given, the exact number is not on record here.

The experiment relates to Symmetric di-Methyl Arginine in Z-138 cells. Briefly: Z-138 Methylation Assay (In Cell Western for symmetric di-methyl arginine). It is filed as cell-based. The note with it: Homo sapiens, 96 hours incubation, symmetric di-methyl arginine normalised to DNA content, read-out: ICW EC50. From the text: Z-138 suspension cells were purchased from ATCC (American Type Culture Collection, Manassas, Va.). RPMI/Glutamax medium, penicillin-streptomycin, heat inactivated fetal bovine serum, and D-PBS were purchased from Life Technologies, Grand Island, N.Y., USA. Odyssey blocking buffer, 800CW goat anti-rabbit IgG (H+L) antibody, and Licor Odyssey infrared scanner were purchased from Licor Biosciences, Lincoln, Nebr., USA. Symmetric di-methyl arginine antibody was purchased from EMD Millipore, Billerica, Mass., USA. 16% Paraformaldehyde was purchased from Electron Microscopy Sciences, Hatfield, Pa., USA.
Z-138 suspension cells were maintained in growth medium (RPMI 1640 supplemented with 10% v/v heat inactivated fetal bovine serum and 100 units/mL penicillin-streptomycin) and cultured at 37° C. under 5% CO2.
Cell Treatment, In Cell Western (ICW) for detection of Symmetric di-Methyl Arginine and DNA content.
Z-138 cells were seeded in assay medium at a concentration of 50,000 cells per mL to a 384-well cell culture plate with 50 μL per well. Compound (100 nL) from 384 well source plates was added directly to 384 well cell plate. Plates were incubated at 37° C., 5% CO2 for 96 hours. After four days of incubation, 40 μL of cells from incubated plates were added to poly-D-lysine coated 384 well culture plates (BD Biosciences 356697). Plates were incubated at room temperature for 30 minutes then incubated at 37° C., 5% CO2 for 5 hours. After the incubation, 40 μL per well of 8% paraformaldehyde in PBS (16% paraformaldahyde was diluted to 8% in PBS) was added to each plate and incubated for 30 minutes. Plates were transferred to a Biotek 405 plate washer and washed 5 times with 100 μL per well of wash buffer (IX PBS with 0.1% Triton X-100 (v/v)). Next […] well of Odyssey blocking buffer were added to each plate and incubated 1 hour at room temperature. Blocking buffer was removed and 20 μL per well of primary antibody was added (symmetric di-methyl arginine diluted 1:100 in Odyssey buffer with 0.1% Tween 20 (v/v)) and plates were incubated overnight (16 hours) at 4° C. Plates were washed 5 times with 100 μL per well of wash buffer. Next 20 μL per well of secondary antibody was added (1:200 800CW goat anti-rabbit IgG (H+L) antibody, 1:1000 DRAQ5 (Biostatus limited) in Odyssey buffer with 0.1% Tween 20 (v/v)) and incubated for 1 hour at room temperature. The plates were washed 5 times with 100 μL per well wash buffer then 1 time with 100 μL per well of water. Plates were allowed to dry at room temperature then imaged on the Licor Odyssey machine which measures integrated intensity at 700 nm and 800 nm wavelengths. Both 700 and 800 channels were scanned.
First, the ratio for each well was determined by:
Each plate included fourteen control wells of DMSO only treatment (minimum inhibition) as well as fourteen control wells for maximum inhibition treated with 3 μM of a reference compound (Background wells). The average of the ratio values for each control type was calculated and used to determine the percent inhibition for each test well in the plate. Reference compound was serially diluted three-fold in DMSO for a total of nine test concentrations, beginning at 3 μM. Percent inhibition was determined and IC50 curves were generated using triplicate wells per concentration of compound.
For orientation: EC50 means the concentration giving half of the maximal effect. As for `CC(=O)N1CCC(Nc2cc(C(=O)NC[C@H](O)CN3CCc4[nH]cnc4C3)ncn2)CC1` [Compound 3-34, (S)-6-((1-acetylpiperidin-4-yl)amino)-N-(3-(6,7-dihydro-1H-imidazo[4,5-c]pyridin-5(4H)-yl)-2-hydroxypropyl)pyrimidine-4-carboxamide], the EC50 is over 1000 nM. The result for `CC(=O)N1CCC(Nc2cc(C(=O)NC[C@H](O)CN3CCc4cn[nH]c4C3)ccn2)CC1` [Compound 3-50] reads over 1000 nM.

Consider `Nc1nc2c(s1)CN(C[C@@H](O)CNC(=O)c1cc(NC3COC3)ncn1)CC2` [Compound 1-23], for which the concentration giving a half-maximal response (EC50) was over 1000 nM. Under `O=C(COc1cccc2cccnc12)NCC(O)CN1CCc2ncccc2C1` (stereo not shown) [Compound 2-6, N-[2-hydroxy-3-(5,6,7,8-tetrahydro-1,6-naphthyridin-6-yl)propyl]-2-(quinolin-8-yloxy)acetamide] stands over 1000 nM; under `CC(=O)N1CCC(Nc2cc(C(=O)NC[C@H](O)CN3CCc4[nH]nc(-c5ccccc5)c4C3)ncn2)CC1` [Compound 3-12, (S)-6-((1-acetylpiperidin-4-yl)amino)-N-(2-hydroxy-3-(3-phenyl-6,7-dihydro-1H-pyrazolo[4,3-c]pyridin-5(4H)-yl)propyl)pyrimidine-4-carboxamide], over 1000 nM; under `Cn1cc2c(n1)CCN(C[C@@H](O)CNC(=O)c1cc(NC3COC3)ncn1)C2` [Compound 3-27], over 1000 nM. Consider `CC(=O)N1CC(Nc2cc(C(=O)NC[C@H](O)CN3CCc4sc(N)nc4C3)ncn2)C1` [Compound 1-28], for which the EC50 was over 1000 nM. `CC(=O)N1CC(Nc2cc(C(=O)NC[C@H](O)CN3CCc4sccc4C3)ncn2)C1` [Compound 1-2, (S)-6-((1-acetylazetidin-3-yl)amino)-N-(3-(6,7-dihydrothieno[3,2-c]pyridin-5(4H)-yl)-2-hydroxypropyl)pyrimidine-4-carboxamide]: the EC50 was under 100 nM. The result for `CC(=O)N1CCC(Nc2cc(C(=O)NC[C@H](O)CN3CCc4ncccc4C3)ncn2)CC1` [Compound 2-14, (S)-6-((1-acetylpiperidin-4-yl)amino)-N-(3-(7,8-dihydro-1,6-naphthyridin-6(5H)-yl)-2-hydroxypropyl)pyrimidine-4-carboxamide] reads 101 to 1000 nM; that for `CC(=O)N1CCC(Nc2cc(C(=O)NC[C@H](O)CN3CCc4ncsc4C3)ncn2)CC1` [Compound 1-18, (S)-6-((1-acetylpiperidin-4-yl)amino)-N-(3-(6,7-dihydrothiazolo[5,4-c]pyridin-5(4H)-yl)-2-hydroxypropyl)pyrimidine-4-carboxamide], over 1000 nM; that for `Cn1cnc2c1CCN(C[C@@H](O)CNC(=O)c1cc(NC3COC3)ncn1)C2` [Compound 3-28], over 1000 nM.

`O=C(COc1cccc2cccnc12)NCC(O)CN1CCc2cccnc2C1` (stereo not shown) [Compound 2-5, N-[2-hydroxy-3-(5,6,7,8-tetrahydro-1,7-naphthyridin-7-yl)propyl]-2-(quinolin-8-yloxy)acetamide]: the EC50 is over 1000 nM.

In the case of `CC(=O)N1CCC(Nc2cc(C(=O)NC[C@H](O)CN3CCc4ncccc4C3)ccn2)CC1` [Compound 2-20, (S)-2-((1-acetylpiperidin-4-yl)amino)-N-(3-(7,8-dihydro-1,6-naphthyridin-6(5H)-yl)-2-hydroxypropyl)isonicotinamide], the EC50 lay in the range of 101 to 1000 nM. The result for `CC(=O)N1CCC(Nc2cc(C(=O)NC[C@H](O)CN3CCc4c(cnn4C)C3)ncn2)CC1` [Compound 3-56] reads over 1000 nM; that for `CC(=O)N1CC(Nc2cc(C(=O)NC[C@H](O)CN3CCc4[nH]ncc4C3)ncn2)C1` [Compound 3-23], over 1000 nM.

For the molecule `CC(=O)N1CC(Nc2cc(C(=O)NC[C@H](O)CN3CCc4[nH]nc(-c5ccccc5)c4C3)ncn2)C1` [Compound 3-11, (S)-6-((1-acetylazetidin-3-yl)amino)-N-(2-hydroxy-3-(3-phenyl-6,7-dihydro-1H-pyrazolo[4,3-c]pyridin-5(4H)-yl)propyl)pyrimidine-4-carboxamide], the EC50 is over 1000 nM.
